The subject of data set [1] is Mus musculus. Nature of the data set: Net log cell kill was determined after injecting 30 mg/kg intraperitoneally in CD2F1 mice. The class given is functional. Conditions: route intraperitoneal.
For data set [2], the system named is Mus musculus. The data set can be described thus: Ratio of treated to that of untreated tumor-bearing control animals at 15 mg/kg intraperitoneally in CD2F1 mice was determined. The class given is functional. As to conditions: route intraperitoneal.
For data set [3], the system named is Mus musculus. Nature of the data set: Net log cell kill was determined after injecting 7.5 mg/kg intraperitoneally in CD2F1 mice. The class given is functional. Conditions: route intraperitoneal.
In data set [4] the test system is Mus musculus. Nature of the data set: Body weight change of test animals to that of control was determined after injection at 1.87 mg/kg intraperitoneally in CD2F1 mice. Format: functional. Conditions: route intraperitoneal.
Data set [5] relates to Mus musculus. The data set can be described thus: Toxicity day survivors was determined by the ratio of animals survived to that of test animals at 3.75 mg/kg intraperitoneally in CD2F1 mice; 5/5. Conditions: in vivo, ip. The arrangement: dose 3.75 mg/kg, route intraperitoneal. Format: organism-based.
Data set [6] concerns Mus musculus. Nature of the data set: Body weight change of test animals to that of control was determined after injection at 15 mg/kg intraperitoneally in CD2F1 mice. The class given is functional. Conditions: route intraperitoneal.
Data set [7] deals with Mus musculus. Nature of the data set: Ratio of treated to that of untreated tumor-bearing control animals at 30 mg/kg intraperitoneally in CD2F1 mice was determined. Format: functional. Conditions: route intraperitoneal.
Data set [8] concerns Mus musculus. The data set can be described thus: Body weight change of test animals to that of control was determined after injection at 30 mg/kg intraperitoneally in CD2F1 mice. Format: functional. Conditions: route intraperitoneal.
Data set [9] relates to Mus musculus. Nature of the data set: Toxicity day survivors was determined by the ratio of animals survived to that of test animals at 7.5 mg/kg intraperitoneally in CD2F1 mice; 4/4. The class given is organism-based. The arrangement: dose 7.5 mg/kg, route intraperitoneal. As to conditions: in vivo, ip.
The test system of data set [10] is Mus musculus. The data set can be described thus: Body weight change of test animals to that of control was determined after injection at 7.5 mg/kg intraperitoneally in CD2F1 mice. The class given is functional. Conditions: route intraperitoneal.
The test system of data set [11] is Mus musculus. The data set can be described thus: Ratio of treated to that of untreated tumor-bearing control animals at 7.5 mg/kg intraperitoneally in CD2F1 mice was determined. As to conditions: route intraperitoneal. The class given is functional.
The test system of data set [12] is Mus musculus. Nature of the data set: Net log cell kill was determined after injecting 15 mg/kg intraperitoneally in CD2F1 mice. As to conditions: route intraperitoneal. The class given is functional.
Data set [13] concerns Mus musculus. The data set can be described thus: Net log cell kill was determined after injecting 3.75 mg/kg intraperitoneally in CD2F1 mice. Format: functional. Conditions: route intraperitoneal.
Data set [14] concerns Mus musculus. Nature of the data set: Ratio of treated to that of untreated tumor-bearing control animals at 3.75 mg/kg intraperitoneally in CD2F1 mice was determined. Format: functional. As to conditions: route intraperitoneal.
The subject of data set [15] is Mus musculus. Nature of the data set: Toxicity day survivors was determined by the ratio of animals survived to that of test animals at 15 mg/kg intraperitoneally in CD2F1 mice; 4/4. The class given is organism-based. The arrangement: dose 15 mg/kg, route intraperitoneal. Conditions: in vivo, ip.
Data set [16] relates to Mus musculus. The data set can be described thus: Ratio of treated to that of untreated tumor-bearing control animals at 1.87 mg/kg intraperitoneally in CD2F1 mice was determined. The class given is functional. As to conditions: route intraperitoneal.
Data set [17] relates to Mus musculus. Nature of the data set: Net log cell kill was determined after injecting 1.87 mg/kg intraperitoneally in CD2F1 mice. Format: functional. As to conditions: route intraperitoneal.
The subject of data set [18] is Mus musculus. The data set can be described thus: Toxicity day survivors was determined by the ratio of animals survived to that of test animals at 60 mg/kg intraperitoneally in CD2F1 mice; 0/6. Format: organism-based. As to conditions: in vivo, ip. The arrangement: dose 60 mg/kg, route intraperitoneal.
For data set [19], the system named is Mus musculus. The data set can be described thus: Toxicity day survivors was determined by the ratio of animals survived to that of test animals at 30 mg/kg intraperitoneally in CD2F1 mice; 6/6. As to conditions: in vivo, ip. The arrangement: dose 30 mg/kg, route intraperitoneal. The class given is organism-based.
For data set [20], the system named is Mus musculus. The data set can be described thus: Body weight change of test animals to that of control was determined after injection at 3.75 mg/kg intraperitoneally in CD2F1 mice. As to conditions: route intraperitoneal. Format: functional.
For data set [21], the system named is Mus musculus. Nature of the data set: Toxicity day survivors was determined by the ratio of animals survived to that of test animals at 1.87 mg/kg intraperitoneally in CD2F1 mice; 5/5. As to conditions: in vivo, ip. Set-up: dose 1.87 mg/kg, route intraperitoneal. The class given is organism-based.
Data set [22] has as its system Mus musculus. Nature of the data set: Toxicity day survivors was determined by the ratio of animals survived to that of test animals at 15 mg/kg intraperitoneally in CD2F1 mice; 0/6. The class given is organism-based. The arrangement: dose 15 mg/kg, route intraperitoneal. Conditions: in vivo, ip.
In data set [23] the test system is Mus musculus. The data set can be described thus: Toxicity day survivors was determined by the ratio of animals survived to that of test animals at 3.75 mg/kg intraperitoneally in CD2F1 mice; 6/6. Format: organism-based. The arrangement: dose 3.75 mg/kg, route intraperitoneal. Conditions: in vivo, ip.
Data set [24] relates to Mus musculus. The data set can be described thus: Toxicity day survivors was determined by the ratio of animals survived to that of test animals at 1.87 mg/kg intraperitoneally in CD2F1 mice; 6/6. Conditions: in vivo, ip. Format: organism-based. Set-up: dose 1.87 mg/kg, route intraperitoneal.
The test system of data set [25] is Mus musculus. Nature of the data set: Toxicity day survivors was determined by the ratio of animals survived to that of test animals at 7.5 mg/kg intraperitoneally in CD2F1 mice; 6/6. Format: organism-based. Set-up: dose 7.5 mg/kg, route intraperitoneal. As to conditions: in vivo, ip.

Molecules are shown by their SMILES.

This note sets out measurements from ChEMBL document CHEMBL1124001, “Synthesis and antileukemic activity of bis[[(carbamoyl)oxy]methyl]- substituted pyrrolo[2,1-a]isoquinolines, pyrrolo[1,2-a]quinolines, pyrrolo[2,1-a]isobenzazepines, and pyrrolo[1,2-a]benzazepines” (J Med Chem, 1988).

One may read the T/C as the ratio of treated to control. On to `COc1ccc2c(c1)CCc1c(COC(=O)NC(C)C)c(COC(=O)NC(C)C)c(C)n1-2`, for which the KE with Mus musculus [1] was 1.51; in the data set on Mus musculus [3] it was -1.31; with Mus musculus [12], 1.43; in the data set with Mus musculus [13] it was -1.45; in the data set with Mus musculus [17], -1.56. Moreover, the T/C with Mus musculus [2] worked out at 150%; in the data set on Mus musculus [7] it was 160%; in the data set with Mus musculus [11], 116%; with Mus musculus [14] it was 105%; with Mus musculus [16], 97%. Besides, the T-C is given as -0.6 g in the data set on Mus musculus [4]; -6.5 g with Mus musculus [6]; -4.2 g in the data set on Mus musculus [8]; -2.9 g in the data set with Mus musculus [10]; -0.8 g with Mus musculus [20]. The TDS in the data set on Mus musculus [5] was 5; in the data set with Mus musculus [9], 4; in the data set on Mus musculus [15], 4; in the data set on Mus musculus [18], 0; in the data set with Mus musculus [19], 6; in the data set on Mus musculus [21], 5.
As to `Cc1c(COC(=O)NC(C)C)c(COC(=O)NC(C)C)c2n1-c1ccccc1CC2`, the TDS in the data set with Mus musculus [22] was 0; in the data set with Mus musculus [23], 6; with Mus musculus [24], 6; with Mus musculus [25], 6. Besides, the KE in the data set on Mus musculus [3] was -1.64; with Mus musculus [13], 1.47; in the data set with Mus musculus [17], -0.14. The T-C in the data set on Mus musculus [4] is -1.5 g; in the data set with Mus musculus [10], -2.8 g; in the data set on Mus musculus [20], -3.6 g. For the same compound, the T/C stood at 94% in the data set with Mus musculus [11], 155% in the data set with Mus musculus [14] and 134% with Mus musculus [16].
